Article PMC3745430, “Novel Multiplexed Assay for Identifying SH2 Domain Antagonists of STAT Family Proteins” (PLoS ONE, 2013)

Tests used:
[1] = molecular target: T1, STAT3(136–705) (Homo sapiens, UniProt P40763); experiment: Single STAT3-SH2 binding assay (AlphaLISA); conditions: non-multiplexed single assay
T1 construct: amino acids 136 to 705 of human STAT3 and 136 to 703 of human STAT5b; 6×His-tag (N); made in house; host or cells: E. coli BL-21 Star (DE3) pLysS co-transformed with pBirAcm
Procedure: (§1) Both AlphaLISA and AlphaScreen are bead-based nonradioactive binding assay systems for detecting biomolecular interactions in a microplate format. The binding of the biological partners brings the donor and acceptor beads into close proximity, and AlphaLISA produces a specific signal around 615 nm and AlphaScreen emits a broad signal between 520 and 620 nm. The assays were performed in a final reaction volume of 25 µL of the assay buffer, which contained 10 mM HEPES-NaOH (pH 7.4), 50 mM NaCl, 1 mM EDTA (pH 8.0), 0.1% (w/v) NP-40, and 10 ng/µL (w/v) BSA in a 96-well microplate at 25°C. The labeled phosphotyrosyl (pTyr, pY) peptide probes were DIG-GpYLPQTV and FITC-GpYLVLDKW for STAT3 and STAT5b, respectively. In the single assay for STAT3 binding, 100 nM STAT3(136–705) protein was incubated with a test compound dissolved in DMSO for 30 min, and 1.0 nM DIG-GpYLPQTV was added and the mixture was incubated for 90 min. Streptavidin-coated donor beads (0.25 µg/well) and anti-DIG AlphaLISA acceptor beads (0.25 µg/well) were added and incubated for 90 min before the signals were measured with EnVison Xcite (PerkinElmer Life Sciences). In the single assay for STAT5b binding, 20 nM STAT5b(136–703) was incubated with a test compound for 30 min, and 1.0 nM FITC-GpYLVLDKW was added and incubated for 90 min. Streptavidin-coated donor beads (0.25 µg/well) and anti-FITC AlphaScreen acceptor beads (0.25 µg/well) were added and incubated for 90 min before the signals were measured with EnVison Xcite. In the multiplexed assay, 100 nM STAT3(136–705) and 20 nM STAT5b(136–703) were incubated with a test compound for 30 min, and 1.0 nM DIG-GpYLPQTV and 1.0 nM FITC-GpYLVLDKW were added and incubated for 90 min. Streptavidin-coated donor beads (0.50 µg/well), anti-DIG AlphaLISA (0.25 µg/well), and anti-FITC AlphaScreen acceptor beads (0.25 µg/well) were added and incubated for 90 min before the signals were measured with EnVison Xcite. AlphaLISA and AlphaScreen signals for measuring STAT3- and STAT5b-SH2 binding, respectively, can be separately measured by using a dysprosium 572 nm and a europium 615 nm narrow bandwidth filter. In inhibitory assays, these signals for the bound state and the free state were represented as 0% and 100% inhibition, respectively. The bound state was measured by incubating the labeled peptide and the protein without test compounds. The free state was measured by incubating the same mixture with an additional 10 µM non-labeled peptide contained phosphorylated tyrosine, which competitively binds to its corresponding protein. The IC50 value was calculated by Graph pad prism 4.0. The mean and the standard error (SEM) of IC50 values were determined from three independent experiments. The Z’ value was calculated using the equation Z’ = 1–(3×SD_bound +3×SD_free)/(Signal_bound – Signal_free). STAT1 and Grb2 binding assays were performed as described in previous report. In the assays for selectivity of Compound 1, 100 pM biotinylated DIG or 100 pM biotinylated FITC was incubated with 10 µM or 30 µM Compound 1 for 30 min. Streptavidin-coated donor beads (0.25 µg/well) and anti-DIG AlphaLISA acceptor beads (0.25 µg/well) or anti-FITC AlphaScreen acceptor beads (0.25 µg/well) were added and incubated for 90 min before the signals were measured with EnVison Xcite.

[2] = molecular target: T1, STAT3(136–705); experiment: Multiplexed Alpha assay, STAT3-SH2 binding (AlphaLISA); conditions: multiplexed binding assay; mean and SEM, three independent experiments; read-out: IC50 STAT3-SH2 binding (STAT3)
Procedure: as §1

[3] = tested on: STAT3 nuclear translocation in HeLa cells; experiment: STAT3 nuclear translocation assay in oncostatin M-stimulated HeLa cells; assay type: cell-based; conditions: for Fluorescent intensity of STAT3 in the nuclei, of the vehicle treatment: 1 h pretreatment, oncostatin M 30 ng/mL 10 min, HeLa
Procedure: The Cellomics STAT3 Activation Kit (Thermo Scientific) was used for the nuclear translocation assay. HeLa cells were incubated in a 96-well microplate for 24 h. Cells were pretreated with the test compounds for 1 hour, and 30 ng/mL (w/v) of oncostatin M was applied and the mixture was incubated for 10 min. The subsequent procedures were performed according to the manufacturer’s instructions. The cells were scanned with an ArrayScan VTI reader (Thermo Scientific), and analyzed with the Cytoplasm to Nucleus Translocation Application. The mean fluorescent values in the nuclei were calculated. The signals for vehicle treatment and no treatment (without oncostatin M) were represented as 100% and 0%, respectively, and the relative signal intensity was also calculated.

[4] = molecular target: T2, STAT1-SH2 (Homo sapiens, UniProt P42224); experiment: STAT1-SH2 binding AlphaScreen assay; conditions: AlphaScreen assay (Figure S8A)
T2 construct: made in house
T2 sequence (P42224 1-750): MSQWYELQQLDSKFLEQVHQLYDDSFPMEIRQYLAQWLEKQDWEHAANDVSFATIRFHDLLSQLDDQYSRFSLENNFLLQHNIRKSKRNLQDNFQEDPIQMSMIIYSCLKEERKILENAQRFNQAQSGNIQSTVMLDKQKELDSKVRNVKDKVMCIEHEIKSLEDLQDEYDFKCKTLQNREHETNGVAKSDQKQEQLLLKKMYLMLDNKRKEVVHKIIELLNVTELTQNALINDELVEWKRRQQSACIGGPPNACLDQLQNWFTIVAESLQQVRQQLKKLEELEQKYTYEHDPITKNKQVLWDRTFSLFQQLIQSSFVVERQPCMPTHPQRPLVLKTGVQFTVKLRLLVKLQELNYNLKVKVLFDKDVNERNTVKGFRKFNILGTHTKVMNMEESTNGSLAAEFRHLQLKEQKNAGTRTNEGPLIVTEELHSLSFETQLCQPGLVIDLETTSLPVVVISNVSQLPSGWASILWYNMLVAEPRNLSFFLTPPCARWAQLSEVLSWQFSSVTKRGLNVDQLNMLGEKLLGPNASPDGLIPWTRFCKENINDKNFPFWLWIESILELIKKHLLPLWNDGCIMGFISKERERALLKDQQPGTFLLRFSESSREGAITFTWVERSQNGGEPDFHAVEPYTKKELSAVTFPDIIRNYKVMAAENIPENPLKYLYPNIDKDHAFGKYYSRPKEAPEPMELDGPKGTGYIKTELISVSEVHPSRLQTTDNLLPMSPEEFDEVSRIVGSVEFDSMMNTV
Procedure: Both AlphaLISA and AlphaScreen are bead-based nonradioactive binding assay systems for detecting biomolecular interactions in a microplate format. The binding of the biological partners brings the donor and acceptor beads into close proximity, and AlphaLISA produces a specific signal around 615 nm and AlphaScreen emits a broad signal between 520 and 620 nm. The assays were performed in a final reaction volume of 25 µL of the assay buffer, which contained 10 mM HEPES-NaOH (pH 7.4), 50 mM NaCl, 1 mM EDTA (pH 8.0), 0.1% (w/v) NP-40, and 10 ng/µL (w/v) BSA in a 96-well microplate at 25°C. […] Streptavidin-coated donor beads (0.25 µg/well) and anti-DIG AlphaLISA acceptor beads (0.25 µg/well) were added and incubated for 90 min before the signals were measured with EnVison Xcite (PerkinElmer Life Sciences). […] Streptavidin-coated donor beads (0.25 µg/well) and anti-FITC AlphaScreen acceptor beads (0.25 µg/well) were added and incubated for 90 min before the signals were measured with EnVison Xcite. […] Streptavidin-coated donor beads (0.50 µg/well), anti-DIG AlphaLISA (0.25 µg/well), and anti-FITC AlphaScreen acceptor beads (0.25 µg/well) were added and incubated for 90 min before the signals were measured with EnVison Xcite. […] The bound state was measured by incubating the labeled peptide and the protein without test compounds. […] The IC50 value was calculated by Graph pad prism 4.0. […]

T1 sequence (P40763 136-705): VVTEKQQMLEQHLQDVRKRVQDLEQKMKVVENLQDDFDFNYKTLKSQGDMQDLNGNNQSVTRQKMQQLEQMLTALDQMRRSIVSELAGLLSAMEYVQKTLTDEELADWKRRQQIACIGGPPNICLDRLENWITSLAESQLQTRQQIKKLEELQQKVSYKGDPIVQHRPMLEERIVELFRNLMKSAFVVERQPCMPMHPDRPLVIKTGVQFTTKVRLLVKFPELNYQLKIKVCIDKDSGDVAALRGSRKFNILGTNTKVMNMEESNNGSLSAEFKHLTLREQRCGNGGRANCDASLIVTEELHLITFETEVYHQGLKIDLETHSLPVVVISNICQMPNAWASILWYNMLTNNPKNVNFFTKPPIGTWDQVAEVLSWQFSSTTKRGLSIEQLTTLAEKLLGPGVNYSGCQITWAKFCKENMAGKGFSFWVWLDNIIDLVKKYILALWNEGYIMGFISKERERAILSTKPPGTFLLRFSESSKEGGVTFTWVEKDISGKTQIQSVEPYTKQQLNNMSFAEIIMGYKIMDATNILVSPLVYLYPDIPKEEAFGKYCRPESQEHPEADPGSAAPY

IC50 [1]: 3.8 µM
IC50 [2]: 5 ± 0.073 µM
Inhibition of STAT1-SH2 binding [4]: inhibited neither
Structure (SMILES): O=C1C=CC(=NC2=C(Cl)C(=O)c3ccccc3C2=O)C=C1 [Compound 1]
Fluorescent intensity of STAT3 in the nuclei, of the vehicle treatment ([3]; 60 µM): 51%
Fluorescent intensity of STAT3 in the nuclei, of the vehicle treatment ([3]; 100 µM): 31%
Effect on STAT3 nuclear translocation ([3]; HeLa cells, pretreatment before oncostatin M (Figure 6, Figure S9)): reduced the STAT3 nuclear translocation in a dose-dependent manner
